# Laboratory results as given in patent US8048440B2, “Thermoplastic fluoropolymer-coated medical devices” (Gore Enterprise Holdings, Inc., priority 2002, dated 2011).
# Counter-ions that a name gives are not always drawn.
# Assay: release of chlorhexidine dihydrochloride from the pocketed TFE/PMVE film composite in PBS, with needle puncture
# Format: physicochemical
# Conditions: 1 cm by 1 cm composite in PBS at 37° C., punctured with 16-gauge needle
# Description: A polypropylene template with 0.7 mm diameter holes arranged in a rectangle pattern was made to facilitate manufacturing of the device. The holes were evenly spaced approximately 2 mm apart, from edge to edge. This template was placed on top of one of the TFE/PMVE extruded sheets, then dusted with chlorhexidine dihydrochloride. The template was removed, leaving a dot-matrix pattern of the drug on the surface of the extruded film. A second sheet of extruded polymer was gently placed on top of the first sheet. The composite of polymer sheets and drug was wrapped in aluminum foil, placed between two metal plates, heated in an oven set at 115° C. for 15 minutes, removed from the oven, immediately pressed between the two hot metal plates for 15 minutes, and then removed from the metal plates and aluminum foil. This process created encapsulated drug pockets between the polymer films. An approximately 1 cm by 1 cm square of finished material was placed into phosphate buffered saline (PBS) at 37° C., periodically sampled for antimicrobial content, and punctured with a 16-gauge needle. The release of the chlorhexidine dihydrochloride as a function of puncturing the composite and time in solution is shown in FIG. 7C. […] Thus, an additional dose of the drug can be delivered on demand as a consequence of puncturing drug pockets.
smiles,measurement,value
[H]/N=C(\N/C(=N/[H])NCCCCCCNC(=N)NC(=N)Nc1ccc(Cl)cc1)Nc1ccc(Cl)cc1 [chlorhexidine dihydrochloride],release of chlorhexidine dihydrochloride as a function of puncturing and time in solution,continuously released at a minimal level until the composite was punctured with the needle
